Where a SMILES comes first, the peptide text is derived from it. The star is where a group is joined. Dansyl = CN(C)c1cccc2c(S(=O)(=O)*)cccc12
Assays:
[1] = target: T1, yPFTase (Saccharomyces cerevisiae, UniProt P22007+P29703); assay: Continuous fluorescence kinetic assay of dansylated Ds-GCa1a2X peptides; format: biochemical; conditions: greater with yPFTase, Table S4
T1 sequence (P22007 1-431): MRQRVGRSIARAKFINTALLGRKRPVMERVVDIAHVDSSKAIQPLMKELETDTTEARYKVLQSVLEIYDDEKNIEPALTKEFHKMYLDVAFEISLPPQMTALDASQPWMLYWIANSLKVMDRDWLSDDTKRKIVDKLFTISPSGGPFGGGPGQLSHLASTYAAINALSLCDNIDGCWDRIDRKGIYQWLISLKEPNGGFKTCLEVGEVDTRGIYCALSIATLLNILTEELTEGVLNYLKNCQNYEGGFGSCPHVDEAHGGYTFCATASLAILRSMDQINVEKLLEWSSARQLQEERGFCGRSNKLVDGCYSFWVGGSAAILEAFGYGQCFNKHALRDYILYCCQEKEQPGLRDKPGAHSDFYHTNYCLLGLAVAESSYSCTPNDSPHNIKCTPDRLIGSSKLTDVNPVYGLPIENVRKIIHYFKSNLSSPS
T1 sequence (P29703 1-316 partner): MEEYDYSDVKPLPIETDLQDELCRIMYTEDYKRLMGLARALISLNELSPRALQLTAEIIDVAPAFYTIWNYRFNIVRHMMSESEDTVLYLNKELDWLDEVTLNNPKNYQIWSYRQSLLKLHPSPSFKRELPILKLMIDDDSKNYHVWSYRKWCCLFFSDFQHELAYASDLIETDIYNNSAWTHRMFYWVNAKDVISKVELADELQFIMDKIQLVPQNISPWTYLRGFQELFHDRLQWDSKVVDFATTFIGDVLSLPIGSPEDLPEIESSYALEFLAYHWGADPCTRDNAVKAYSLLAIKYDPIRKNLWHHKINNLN

[2] = test system: CaPFTase; assay: as above; format: biochemical, Candida albicans; conditions: greater with CaPFTase, Table S4

Row | Molecule | kcat/KM of yPFTase compared with rPFTase [1] [fold] | kcat/KM of CaPFTase compared with rPFTase [2] [fold]
1 | Ds-GCVTN | 11 | 
2 | CC(C)[C@H](NC(=O)[C@@H](NC(=O)[C@@H](NC(=O)[C@H](CS)NC(=O)CNS(=O)(=O)c1cccc2c(N(C)C)cccc12)C(C)C)C(C)C)C(=O)O [Ds-GCVVV] (Dansyl-GCVVV-OH) |  | 6.2

— paper PMC4136699 (ACS Chemical Biology, 2014)
